Reference: ChEMBL document CHEMBL6120962, “New Mitochondria-Targeted Fisetin Derivative Compromises Mitophagy and Limits Survival of Drug-Induced Senescent Breast Cancer Cells” (J Med Chem, 2024)
Activity calls are given as the source filed them. The calls are words filed in the database; no cut-off is given here.

What was measured:
HCC1428 [1] = experiment: Induction of autophagy in tamoxifen-induced senescent human HCC1428 cells assessed as increase in VPS34 level at 1 to 5 uM by immunostaining based imaging cytometric analysis; format: functional, cell-based; details: dose 1-5 µM
HCC1428 [2] = experiment: Induction of […] in human tamoxifen-induced senescent human HCC1428 cells at 1 to 5 uM incubated for 24 hrs by Annexin V-FITC staining based flow cytometric analysis; format: functional, cell-based; details: dose 1-5 µM
HCC1428 [3] = experiment: Induction of autophagosome formation in tamoxifen-induced senescent human HCC1428 cells assessed as increase in LC3B level at 1 to 5 uM by immunostaining based imaging cytometric analysis; format: functional, cell-based; details: dose 1-5 µM
HCC1428 [4] = experiment: Induction of mitochondrial dysfunction in human HCC1428 cells assessed as decrease in maximal respiration at 5 uM incubated for 6 hrs by real time analysis; format: functional, cell-based
T47D = experiment: Antitumor activity against ER-positive human T47D cells xenografted in Danio rerio embryo assessed as increase in p21 mRNA level at 1 to 5 uM administered for 48 hrs by RT-PCR analysis; format: functional, cell-based; details: dose 1-5 µM
ZR-75-30 [5] = experiment: Induction of apoptosis in tamoxifen-induced senescent human ZR-75-30 cells assessed as decrease in HSP90 level incubated for 24 hrs by immunostaining based imaging cytometric analysis; format: functional, cell-based
CAMA-1 [6] = experiment: Induction of apoptosis in tamoxifen-induced senescent human CAMA-1 cells assessed as decrease in HSP90 level incubated for 24 hrs by immunostaining based imaging cytometric analysis; format: functional, cell-based
HCC1500 [7] = experiment: Induction of senescence in human HCC1500 cells assessed as […] in beta-galactosidase activity at 5 uM incubated for 24 hrs by immunostaining based imaging cytometric analysis; format: functional, cell-based
HCC1428 [8] = experiment: Induction of apoptosis in tamoxifen-induced senescent human HCC1428 cells assessed as increase in caspase 3 level incubated for 24 hrs by immunostaining based imaging cytometric analysis; format: functional, cell-based
HCC1428 [9] = experiment: Induction of mitochondrial dysfunction in tamoxifen-induced senescent human HCC1428 cells assessed as decrease in maximal respiration at 5 uM incubated for 6 hrs by real-time analysis; format: functional, cell-based
HCC1428 [10] = experiment: Induction of ubiquitin-independent mitophagy in tamoxifen-induced senescent human HCC1428 cells assessed as increase in BNIP3 level at 1 to 5 uM by immunostaining based imaging cytometric analysis; format: functional, cell-based; details: dose 1-5 µM
ZR-75-30 [11] = experiment: Induction of AMPK phosphorylation in tamoxifen-induced senescent human ZR-75-30 cells incubated for 24 hrs by immunostaining based imaging cytometric analysis; format: cell-based; details: filed as activator
ZR-75-30 [12] = experiment: Induction of senescence in human ZR-75-30 cells assessed as […] in beta-galactosidase activity at 5 uM incubated for 24 hrs by immunostaining based imaging cytometric analysis; format: functional, cell-based
CAMA-1 [13] = experiment: Anticancer activity against ER-positive human CAMA-1 cells assessed as effect on metabolic activity upto 10 uM incubated for 24 hrs by MTT assay; format: functional, cell-based
ZR-75-30 [14] = experiment: Induction of oxidative stress in tamoxifen-induced senescent human ZR-75-30 cells assessed as increase in cytosolic SOD1 level at 1 to 5 uM incubated for 24 hrs by MitoSOX red superoxide indicator based fluorescence analysis; format: functional, cell-based; details: dose 1-5 µM
CAMA-1 [15] = experiment: Induction of apoptosis in human CAMA-1 cells assessed as decrease in Bcl2 level at 1 to 5 uM incubated for 24 hrs by Western blot analysis; format: functional, cell-based; details: dose 1-5 µM
[16] = molecular target: Receptor-interacting serine/threonine-protein kinase 3 (Homo sapiens) (UniProt Q9Y572); experiment: Induction of RIP3 phosphorylation in human HCC1428 cells at 1 to 5 uM incubated for 24 hrs by Western blot analysis; format: cell-based; details: dose 1-5 µM
Receptor-interacting serine/threonine-protein kinase 3 (Homo sapiens), sequence (Q9Y572 whole entry, looked up): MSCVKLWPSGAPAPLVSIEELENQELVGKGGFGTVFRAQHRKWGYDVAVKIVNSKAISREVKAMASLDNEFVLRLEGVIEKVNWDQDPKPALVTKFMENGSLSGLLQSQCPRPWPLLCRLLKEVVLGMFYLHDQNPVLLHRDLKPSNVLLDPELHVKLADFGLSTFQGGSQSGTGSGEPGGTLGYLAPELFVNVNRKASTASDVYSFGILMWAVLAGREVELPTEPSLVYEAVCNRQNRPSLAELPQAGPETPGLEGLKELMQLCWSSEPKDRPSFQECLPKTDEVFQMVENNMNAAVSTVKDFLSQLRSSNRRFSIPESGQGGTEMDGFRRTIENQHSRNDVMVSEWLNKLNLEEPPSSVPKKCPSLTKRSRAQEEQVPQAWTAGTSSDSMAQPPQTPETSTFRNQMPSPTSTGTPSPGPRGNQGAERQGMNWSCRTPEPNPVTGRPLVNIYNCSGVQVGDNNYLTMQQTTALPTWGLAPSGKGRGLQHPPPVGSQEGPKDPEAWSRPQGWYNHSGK

Mitochondrial membrane [17] = experiment: Induction of mitochondrial membrane potential depolarization in tamoxifen-induced senescent human MCF-10F cells assessed as increase in depolarized dead cell level at 1 to 5 uM incubated for 24 hrs by 7-AAD staining based flow cytometric analysis; format: cell membranes; details: dose 1-5 µM
HCC1500 [18] = experiment: Induction of apoptosis in tamoxifen-induced senescent human HCC1500 cells assessed as phosphatidylserine externalization at 1 to 5 uM incubated for 24 hrs by Annexin V-FITC staining based flow cytometric analysis; format: functional, cell-based; details: dose 1-5 µM
HCC1428 [19] = experiment: Induction of ubiquitin-dependent mitophagy in tamoxifen-induced senescent human HCC1428 cells assessed as increase in parkin level at 5 uM by immunostaining based imaging cytometric analysis; format: functional, cell-based
HCC1428 [20] = experiment: Upregulation of BECN1 level in tamoxifen-induced senescent human HCC1428 cells at 1 to 5 uM by immunostaining based imaging cytometric analysis; format: functional, cell-based; details: dose 1-5 µM
HCC1428 [21] = experiment: Induction of apoptosis in tamoxifen-induced senescent human HCC1428 cells assessed as decrease in AKT level at 1 to 5 uM incubated for 24 hrs by Western blotting analysis; format: functional, cell-based; details: dose 1-5 µM
MCF-10F [22] = experiment: Induction of mitochondrial dysfunction in tamoxifen-induced senescent human MCF-10F cells assessed as decrease in maximal respiration at 5 uM incubated for 6 hrs by real-time analysis; format: functional, cell-based
MCF-10F [23] = experiment: Induction of mitochondrial dysfunction in human MCF-10F cells assessed as decrease in maximal respiration at 5 uM incubated for 6 hrs by real time analysis; format: functional, cell-based
HCC1428 [24] = experiment: Induction of apoptosis in tamoxifen-induced senescent human HCC1428 cells assessed as decrease in HSP90 level incubated for 24 hrs by immunostaining based imaging cytometric analysis; format: functional, cell-based
HCC1428 [25] = experiment: Induction of mitochondrial dysfunction in tamoxifen-induced senescent human HCC1428 cells assessed as decrease in ATP production at 5 uM incubated for 6 hrs by real-time analysis; format: functional, cell-based
HCC1428 [26] = experiment: Induction of mitochondrial dysfunction in human HCC1428 cells assessed as decrease in ATP production at 5 uM incubated for 6 hrs by real time analysis; format: functional, cell-based
MCF-10F [27] = experiment: Induction of mitochondrial dysfunction in tamoxifen-induced senescent human MCF-10F cells assessed as decrease in coupling efficiency at 5 uM incubated for 6 hrs by real-time analysis; format: functional, cell-based
HCC1428 [28] = experiment: Induction of oxidative stress in tamoxifen-induced senescent human HCC1428 cells assessed as increase in cytosolic SOD1 level at 1 to 5 uM incubated for 24 hrs by MitoSOX red superoxide indicator based fluorescence analysis; format: functional, cell-based; details: dose 1-5 µM
MCF7 = experiment: Antitumor activity against ER-positive human MCF7 cells xenografted in Danio rerio embryo assessed as decrease in tumor size at 1 to 5 uM administered for 48 hrs by imaging analysis; format: functional, cell-based; details: dose 1-5 µM
MCF-10F [29] = experiment: Induction of apoptosis in human MCF-10F cells assessed as decrease in Bcl2 level at 1 to 5 uM incubated for 24 hrs by Western blot analysis; format: functional, cell-based; details: dose 1-5 µM
HCC1428 [30] = experiment: Induction of senescence in human HCC1428 cells assessed as increase in IL-8 level at 5 uM incubated for 24 hrs by immunostaining based imaging cytometric analysis; format: functional, cell-based
HCC1428 [31] = experiment: Induction of mitochondrial dysfunction in tamoxifen-induced senescent human HCC1428 cells assessed as increase in proton leak at 5 uM incubated for 6 hrs by real-time analysis; format: functional, cell-based
Mitochondrial membrane [32] = experiment: Induction of mitochondrial membrane potential depolarization in tamoxifen-induced senescent human CAMA-1 cells assessed as increase in depolarized dead cell level at 1 to 5 uM incubated for 24 hrs by 7-AAD staining based flow cytometric analysis; format: cell membranes; details: dose 1-5 µM
ZR-75-30 [33] = experiment: Induction of apoptosis in human ZR-75-30 cells assessed as phosphatidylserine externalization at 1 to 5 uM incubated for 24 hrs by Annexin V-FITC staining based flow cytometric analysis; format: functional, cell-based; details: dose 1-5 µM
Mitochondrial membrane [34] = experiment: Induction of mitochondrial membrane potential depolarization in human ZR-75-30 cells assessed as increase in fraction of depolarized dead cells at 5 uM incubated for 24 hrs by 7-AAD staining based flow cytometric analysis; format: cell membranes

For CC(=O)Oc1ccc2c(=O)c(OCCCC[P+](c3ccccc3)(c3ccccc3)c3ccccc3)c(-c3ccc4c(c3)OC(c3ccccc3)(c3ccccc3)O4)oc2c1.[I-], the Activity (HCC1428 [1]) was “Active”, the Activity (HCC1428 [2]) was “Active” and the Activity (HCC1428 [3]) was “inactive”. The Activity (HCC1428 [4]) was “Active”, the Activity (T47D) was “Active” and the Activity (ZR-75-30 [5]) was “Active”. The Activity (CAMA-1 [6]) was “Active”, the Activity (HCC1500 [7]) was “Active” and the Activity (HCC1428 [8]) was “Active”. The Activity (HCC1428 [9]) was “Active”, the Activity (HCC1428 [10]) was “inactive” and the Activity (ZR-75-30 [11]) was “Active”. For the same compound, the Activity (ZR-75-30 [12]) was “Active”, the Activity (CAMA-1 [13]) was “Active” and the Activity (ZR-75-30 [14]) was “Active”. The Activity (CAMA-1 [15]) was “Active”, the Activity [16] was “inactive” and the Activity (Mitochondrial membrane [17]) was “inactive”. For the same compound, the Activity (HCC1500 [18]) was “Active”, the Activity (HCC1428 [19]) was “Active” and the Activity (HCC1428 [20]) was “inactive”. For the same compound, the Activity (HCC1428 [21]) was “Active”, the Activity (MCF-10F [22]) was “inactive” and the Activity (MCF-10F [23]) was “inactive”. The Activity (HCC1428 [24]) was “Active”, the Activity (HCC1428 [25]) was “Active” and the Activity (HCC1428 [26]) was “Active”. The Activity (MCF-10F [27]) was “inactive”, the Activity (HCC1428 [28]) was “Active” and the Activity (MCF7) was “Active”. The Activity (MCF-10F [29]) was “inactive”, the Activity (HCC1428 [30]) was “Active” and the Activity (HCC1428 [31]) was “Active”. For the same compound, the Activity (Mitochondrial membrane [32]) was “Active”, the Activity (ZR-75-30 [33]) was “Active” and the Activity (Mitochondrial membrane [34]) was “Active”.
